Columns and labels:
human NTS1 = human NTS1 (Homo sapiens, UniProt P30989); conditions: replacement of Tyr11 by alanine; ref [7]; cited from earlier work
human NTS2 [1] = target: T1, human NTS2 (Homo sapiens, UniProt O95665); conditions: replacement of Tyr11 by alanine; ref [7]; cited from earlier work
human NTS2 [2] = target: T1, human NTS2; experiment: Radioligand binding at human NTS2 with [3H]NT; conditions: SEM

T1 sequence (O95665 whole entry): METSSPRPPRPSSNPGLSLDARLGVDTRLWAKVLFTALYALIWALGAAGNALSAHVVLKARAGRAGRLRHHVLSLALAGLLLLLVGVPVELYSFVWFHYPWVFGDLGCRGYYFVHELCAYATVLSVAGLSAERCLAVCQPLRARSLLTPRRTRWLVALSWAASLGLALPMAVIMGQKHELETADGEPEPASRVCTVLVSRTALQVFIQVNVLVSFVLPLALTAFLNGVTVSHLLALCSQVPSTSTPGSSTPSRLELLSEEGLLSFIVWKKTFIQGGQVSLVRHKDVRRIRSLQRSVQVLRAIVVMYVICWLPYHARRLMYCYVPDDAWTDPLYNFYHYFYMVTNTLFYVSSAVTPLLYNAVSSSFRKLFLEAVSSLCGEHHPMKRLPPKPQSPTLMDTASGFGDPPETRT
Sequence of human NTS1 (P30989 whole entry): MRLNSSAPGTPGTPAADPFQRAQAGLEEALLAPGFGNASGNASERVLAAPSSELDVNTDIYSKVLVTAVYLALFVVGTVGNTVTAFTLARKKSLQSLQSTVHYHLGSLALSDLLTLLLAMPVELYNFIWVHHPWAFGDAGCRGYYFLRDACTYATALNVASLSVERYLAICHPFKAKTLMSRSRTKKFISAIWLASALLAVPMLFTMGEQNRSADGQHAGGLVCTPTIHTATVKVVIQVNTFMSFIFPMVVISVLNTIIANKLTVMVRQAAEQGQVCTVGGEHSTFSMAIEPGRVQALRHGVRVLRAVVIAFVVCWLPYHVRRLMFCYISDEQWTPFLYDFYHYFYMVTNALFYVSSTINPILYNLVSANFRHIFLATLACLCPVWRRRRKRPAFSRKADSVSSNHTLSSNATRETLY

Row | Compound | reduction of ligand affinity at NTS1 compared to NT(8–13) (human NTS1) [fold] | decrease of affinity towards NTS2 compared to NT(8–13) (human NTS2 [1]) [fold] | Ki (human NTS2 [2]) [nM]
1 | [^11Ala]NT(8–13) | 5400 | 70 | –
2 | CC[C@H](C)[C@H](NC(=O)CN(CCc1ccn2nccc2c1)C(=O)[C@@H]1CCCN1C(=O)[C@H](CCCNC(=N)N)NC(=O)[C@@H](N)CCCNC(=N)N)C(=O)N[C@@H](CC(C)C)C(=O)O [compound 3, [^11N-{5-(2-Aminoethyl)pyrazolo[1,5-a]pyridine}-Gly]NT(8–13)] | – | – | 520 ± 170
